Laboratory results reported in patent publication US20240239790A1, “7-Morpholino-1,6-Naphthyridin-5-yl Derivatives and Pharmaceutical Compositions Thereof Useful as DNA-PK Inhibitor” (adMare Therapeutics Society, priority 2021, published 2024).
pEC50, pIC50: −log10 of the molar value. Like-named read-outs stand apart in the source and are kept apart here.

How the values were obtained:
[1] = test system: FaDu cell line; assay: Prodrug Activation in Hypoxic Stirred Tumour Cell Suspensions; settings: 10 μM, 4 hours
[2] = test system: pH2AX induction in HCT116 ATM-/- multicellular tumour spheroids; assay: Prodrug Radiation Sensitization in Multicellular Tumour Spheroids, inhibition of pH2AX induction following radiation; assay type: cell-based; settings: Homo sapiens, HCT-116, 20 Gy
Description: Prodrug compounds were assayed to determine their potency in 3D multicellular spheroids in media maintained under 20% vs 5% oxygen. Multicellular tumour spheroids were grown to approximately 0.5 mm in diameter and irradiated with 20 Gy in combination with inhibitor test compounds to determine their potency using HCT 116 and FaDu cell lines. Experiments were carried out in 96 well plates containing 0.7 mls of MEM media containing 10% FBS and 10 mM glucose under 5% CO2 at 37° C. Following dilution of compounds 1:1000 from DMSO stocks, compounds were serially diluted from 10 μM down to 3.5 nM and 5-10 spheroids added. 96 well plates were constantly stirred to avoid spheroids settling during the course of the experiment. Endpoints were pDNA-PK (ser 2056) or pH2AX (ser 139) status in spheroid cryosections taken 1 or 2 hours following radiation and fixed immediately in formalin. Using tumour cell lines deficient in ATM improved the assay signal to noise and gH2AX readout. Using this assay prodrug activity could be compared in the more oxygenated outer spheroid layers versus less oxygenated hypoxic central cell layers.

[3] = target: T1, DNA-PK phosphorylation at Serine 2056 (Homo sapiens, UniProt P78527); assay: Cellular Assay for Inhibition of DNA-PK Phosphorylation at Serine 2056 in FaDu cells (sandwich ELISA, neocarzinostatin); assay type: cell-based; settings: pSer2056 DNA-PK, Table 3
T1 construct: FaDu cells were purchased from ATCC; host or cells: FaDu
Description: FaDu cells were purchased from ATCC and maintained in MEM alpha medium (Life Technologies, cat. no. 12561) supplemented with 10% fetal bovine serum, and 1% GlutaMAX at 37° C. supplemented with 5% CO2. 50,000 cells were seeded to each well of a 96-well cell culture plate in 50 μL of culture medium and incubated for 16-24 hours. Three-fold serially diluted compounds were prepared in DMSO. Culture media was used to prepare compound treatments to 0.3% DMSO (dimethyl sulphoxide) content. Compound treatments were added to the cells for 1 hour prior incubation, followed by the addition of neocarzinostatin in fresh culture medium to 1 μg/mL final concentration for an additional 2 hours incubation to induce DNA DSBs (double-strand breaks). DMSO controls were incubated with fresh culture medium alone for the additional two hours incubation. The cells were then lysed and frozen at −20° C. Cell lysates were thawed on wet ice and protein concentrations quantified by BCA Protein Assay (Thermo #23225). Lysis buffer was used to normalize lysates by protein content and all lysates were then investigated by sandwich ELISA by means of DNA-PK-specific antibodies (Abcam ab44815: total DNA-PK; ab124918: phosphoserine-2056 DNA-PK) in sandwich ELISA format on the MSD S600MM platform (MesoScale Discovery). % inhibition was calculated for all data points: =1−(DATA_PT−AVERAGE(DMSO controls))/(AVERAGE(NCS controls)−AVERAGE(DMSO controls)). Logarithm of the molar concentration of compound was plotted against percent inhibition to calculate IC50 values, with curve fit settings for data fit to log(inhibitor) vs. normalized response—Variable slope using curve fit software (GraphPad Prism).

[4] = 5% O2, inner layers, read-out: Prodrug 5% O2 Inner layers EC50
[5] = 5% O2, outer layers, read-out: Prodrug 5% O2 Outer layers EC50
[6] = 20% O2, outer layers, read-out: Prodrug 20% O2 Outer layers EC50

| Fraction of prodrug converted to active form, Hypoxic 0.2% O2 [1] | Fraction of prodrug converted to active form, Oxic 5% O2 [1] | pIC50 [3] | Compound | pEC50 [2, 4] | pEC50 [2, 5] | pEC50 [2, 6] |
| --- | --- | --- | --- | --- | --- | --- |
| B (B is 0.05 to 0.15) | C (C is 0.02 to 0.05) | 6.00 to 7.00 | Cn1c(CN(c2cnc3cc(N4CCOCC4)nc(O[C@H]4CC[C@@H](Nc5ccc(F)cn5)CC4)c3c2)S(C)(=O)=O)cnc1[N+](=O)[O-] [LFA2010, N-[5-[4-[(5-fluoro-2-pyridyl)amino]cyclohexoxy]-7-morpholino-1,6-naphthyridin-3-yl]-N-[(3-methyl-2-nitro-imidazol-4-yl)methyl]methanesulfonamide] | 6.30 to 8.00 | 6.00 to 6.30 | 5.00 to 6.00 |
| C (C is 0.02 to 0.05) | D (D is 0 to 0.02) | 4.52 to 5.00 | Cc1nc(N[C@H]2CC[C@@H](Oc3nc(N4CCOCC4)cc4ncc(N(Cc5cnc([N+](=O)[O-])n5C)S(C)(=O)=O)cc34)CC2)ccc1F [LFA2011, N-[5-[4-[(5-fluoro-6-methyl-2-pyridyl)amino]cyclohexoxy]-7-morpholino-1,6-naphthyridin-3-yl]-N-[(3-methyl-2-nitro-imidazol-4-yl)methyl]methanesulfonamide] | 5.00 to 6.00 | 5.00 to 6.00 | 5.00 to 6.00 |
| A (A is 0.15 to 1) | B (B is 0.05 to 0.15) | 4.52 to 5.00 | CC(Oc1cnc2cc(N3CCOCC3)nc(O[C@H]3CC[C@@H](c4cnccn4)CC3)c2c1)c1cnc([N+](=O)[O-])n1C (stereo partly drawn) [LFA2041, 4-[3-[1-(3-methyl-2-nitro-imidazol-4-yl)ethoxy]-5-(4-pyrazin-2-ylcyclohexoxy)-1,6-naphthyridin-7-yl]morpholine] | 6.30 to 8.00 | 5.00 to 6.00 | 5.00 to 6.00 |
| A (A is 0.15 to 1) | C (C is 0.02 to 0.05) | 4.52 to 5.00 | Cn1c(COc2cnc3cc(N4CCOCC4)nc(O[C@H]4CC[C@@H](c5cnccn5)CC4)c3c2)cnc1[N+](=O)[O-] [LFA2042, 4-[3-[(3-methyl-2-nitro-imidazol-4-yl)methoxy]-5-(4-pyrazin-2-ylcyclohexoxy)-1,6-naphthyridin-7-yl]morpholine] | 6.30 to 8.00 | 5.00 to 6.00 | 5.00 to 6.00 |
| B (B is 0.05 to 0.15) | D (D is 0 to 0.02) | 5.00 to 6.00 | CC(c1cnc([N+](=O)[O-])n1C)N(c1cnc2cc(N3CCOCC3)nc(OC3CCC(c4cnccn4)CC3)c2c1)S(C)(=O)=O (stereo not drawn) [LFA2043, N-[1-(3-methyl-2-nitro-imidazol-4-yl)ethyl]-N-[7-morpholino-5-(4-pyrazin-2-ylcyclohexoxy)-1,6-naphthyridin-3-yl]methanesulfonamide] | 6.30 to 8.00 | 6.00 to 6.30 | 5.00 to 6.00 |
| C (C is 0.02 to 0.05) | D (D is 0 to 0.02) | 5.00 to 6.00 | Cn1c(CN(c2cnc3cc(N4CCOCC4)nc(OC4CCC(Nc5ncc(N6CCN(CCF)CC6)cn5)CC4)c3c2)S(C)(=O)=O)cnc1[N+](=O)[O-] (stereo not drawn) [LFA2044, N-[5-[4-[[5-[4-(2-fluoroethyl)piperazin-1-yl]pyrimidin-2-yl]amino]cyclohexoxy]-7-morpholino-1,6-naphthyridin-3-yl]-N-[(3-methyl-2-nitro-imidazol-4-yl)methyl]methanesulfonamide] | 6.30 to 8.00 | 5.00 to 6.00 | 5.00 to 6.00 |
| D (D is 0 to 0.02) | D (D is 0 to 0.02) | 4.52 to 5.00 | Cn1c(CN(c2cnc3cc(N4CCOCC4)nc(OC4CCC(Nc5ncc(N6CCN(CC(F)(F)F)CC6)cn5)CC4)c3c2)S(C)(=O)=O)cnc1[N+](=O)[O-] (stereo not drawn) [LFA2045, N-[(3-methyl-2-nitro-imidazol-4-yl)methyl]-N-[7-morpholino-5-[4-[[5-[4-(2,2,2-trifluoroethyl)piperazin-1-yl]pyrimidin-2-yl]amino]cyclohexoxy]-1,6-naphthyridin-3-yl]methanesulfonamide] | 5.00 to 6.00 | 5.00 to 6.00 | 5.00 to 6.00 |
| D (D is 0 to 0.02) | D (D is 0 to 0.02) | 4.52 to 5.00 | CC(c1cnc([N+](=O)[O-])n1C)N(c1cnc2cc(N3CCOCC3)nc(OC3CCC(Nc4ncc(N5CCN(CC(F)(F)F)CC5)cn4)CC3)c2c1)S(C)(=O)=O (stereo not drawn) [LFA2046, N-[1-(3-methyl-2-nitro-imidazol-4-yl)ethyl]-N-[7-morpholino-5-[4-[[5-[4-(2,2,2-trifluoroethyl)piperazin-1-yl]pyrimidin-2-yl]amino]cyclohexoxy]-1,6-naphthyridin-3-yl]methanesulfonamide] | 6.00 to 6.30 | 5.00 to 6.00 | 5.00 to 6.00 |
| B (B is 0.05 to 0.15) | D (D is 0 to 0.02) | 4.52 to 5.00 | CC(c1cnc([N+](=O)[O-])n1C)N(c1cnc2cc(N3CCOCC3)nc(OC3CCC(Nc4ncc(N5CCN(CC(F)F)CC5)cn4)CC3)c2c1)S(C)(=O)=O (stereo not drawn) [LFA2047, N-[5-[4-[[5-[4-(2,2-difluoroethyl)piperazin-1-yl]pyrimidin-2-yl]amino]cyclohexoxy]-7-morpholino-1,6-naphthyridin-3-yl]-N-[1-(3-methyl-2-nitro-imidazol-4-yl)ethyl]methanesulfonamide] | 6.30 to 8.00 | 5.00 to 6.00 | 5.00 to 6.00 |
| B (B is 0.05 to 0.15) | D (D is 0 to 0.02) | 4.52 to 5.00 | Cn1c(CN(c2cnc3cc(N4CCOCC4)nc(OC4CCC(Nc5ncc(N6CCN(CC(F)F)CC6)cn5)CC4)c3c2)S(C)(=O)=O)cnc1[N+](=O)[O-] (stereo not drawn) [LFA2048, N-[5-[4-[[5-[4-(2,2-difluoroethyl)piperazin-1-yl]pyrimidin-2-yl]amino]cyclohexoxy]-7-morpholino-1,6-naphthyridin-3-yl]-N-[(3-methyl-2-nitro-imidazol-4-yl)methyl]methanesulfonamide] | 6.00 to 6.30 | 5.00 to 6.00 | 6.00 to 6.30 |
| A (A is 0.15 to 1) | B (B is 0.05 to 0.15) | 6.00 to 7.00 | CC(Oc1cnc2cc(N3CCOCC3)nc(O[C@H]3CC[C@@H](Nc4ncc(OCCN5CCOCC5)cn4)CC3)c2c1)c1cnc([N+](=O)[O-])n1C (stereo partly drawn) [LFA2049, N-[4-[[3-[1-(3-methyl-2-nitro-imidazol-4-yl)ethoxy]-7-morpholino-1,6-naphthyridin-5-yl]oxy]cyclohexyl]-5-(2-morpholinoethoxy)pyrimidin-2-amine] | 6.30 to 8.00 | 6.00 to 6.30 | 5.00 to 6.00 |
| B (B is 0.05 to 0.15) | B (B is 0.05 to 0.15) | 5.00 to 6.00 | CC(c1cnn(C)c1[N+](=O)[O-])N(c1cnc2cc(N3CCOCC3)nc(OC3CCC(Nc4ccn5nccc5n4)CC3)c2c1)S(C)(=O)=O (stereo not drawn) [LFA2050, N-[1-(1-methyl-5-nitro-pyrazol-4-yl)ethyl]-N-[7-morpholino-5-[4-(pyrazolo[1,5-a]pyrimidin-5-ylamino)cyclohexoxy]-1,6-naphthyridin-3-yl]methanesulfonamide] | 6.30 to 8.00 | 5.00 to 6.00 | 5.00 to 6.00 |
